The text below walks through data of patent US7626031B2, “Substituted 3-(diarylmethylene)indolin-2-ones and methods of their use” (Symphony Evolution, Inc., priority 2002, dated 2009).

The target of one experiment is FGFR1 (Homo sapiens, UniProt P11362). In words: Kinase assay, FGFR1 (33P-ATP incorporation or luciferase-coupled ATP consumption). The experiment is classed as biochemical. An outline of the steps: (§1)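 Two formats used: luciferase/luciferin chemiluminescence of ATP consumed with pEY, or radiometric 33P transfer to plate-bound MBP or pEY read by scintillation.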
Another experiment deals with EGFR (Homo sapiens, UniProt P00533). In words: Kinase assay, EGFR (33P-ATP incorporation or luciferase-coupled ATP consumption). Type of experiment: biochemical. The procedure, abridged: as §1
Chain of EGFR (P00533 25-1210, species assumed): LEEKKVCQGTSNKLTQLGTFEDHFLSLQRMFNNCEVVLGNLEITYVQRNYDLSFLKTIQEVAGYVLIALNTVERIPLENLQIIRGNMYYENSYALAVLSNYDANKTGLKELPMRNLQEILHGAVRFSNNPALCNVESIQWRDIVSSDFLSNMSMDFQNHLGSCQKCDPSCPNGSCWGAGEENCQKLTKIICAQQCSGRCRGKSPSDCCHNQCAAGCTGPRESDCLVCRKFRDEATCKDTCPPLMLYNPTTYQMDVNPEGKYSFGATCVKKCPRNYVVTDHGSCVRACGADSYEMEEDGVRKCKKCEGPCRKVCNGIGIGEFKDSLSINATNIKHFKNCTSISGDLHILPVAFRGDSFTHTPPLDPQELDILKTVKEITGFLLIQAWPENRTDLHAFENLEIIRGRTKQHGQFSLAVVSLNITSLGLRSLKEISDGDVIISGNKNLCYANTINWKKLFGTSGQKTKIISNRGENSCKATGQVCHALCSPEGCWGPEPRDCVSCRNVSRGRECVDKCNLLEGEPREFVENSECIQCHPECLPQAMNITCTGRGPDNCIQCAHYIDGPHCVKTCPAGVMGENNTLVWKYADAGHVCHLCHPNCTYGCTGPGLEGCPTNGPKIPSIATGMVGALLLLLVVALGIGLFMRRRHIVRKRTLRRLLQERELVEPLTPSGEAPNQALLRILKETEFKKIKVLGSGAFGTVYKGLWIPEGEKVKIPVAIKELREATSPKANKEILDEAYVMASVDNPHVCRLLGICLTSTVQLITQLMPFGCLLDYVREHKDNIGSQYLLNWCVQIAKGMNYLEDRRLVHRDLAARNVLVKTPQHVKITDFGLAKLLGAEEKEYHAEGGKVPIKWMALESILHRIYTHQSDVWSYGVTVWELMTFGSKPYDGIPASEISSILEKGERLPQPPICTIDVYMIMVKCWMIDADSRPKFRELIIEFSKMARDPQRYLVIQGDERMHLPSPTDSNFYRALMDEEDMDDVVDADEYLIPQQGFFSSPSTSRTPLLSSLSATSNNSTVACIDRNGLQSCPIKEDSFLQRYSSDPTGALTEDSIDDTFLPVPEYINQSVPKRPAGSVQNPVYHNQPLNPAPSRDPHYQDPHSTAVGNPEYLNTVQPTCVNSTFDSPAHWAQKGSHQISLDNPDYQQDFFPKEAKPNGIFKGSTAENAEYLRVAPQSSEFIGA
Another experiment addresses Flt-1 (Homo sapiens, UniProt P17948). In words: Kinase assay, Flt-1 (33P-ATP incorporation or luciferase-coupled ATP consumption). Type of experiment: biochemical. The note with it: read-out: Flt1 IC50. As for the experimental part:
Kinase assays were performed by measurement of incorporation of γ-^33P ATP into immobilized myelin basic protein (MBP). […] Plates were washed 3× with 100 μl TBS. […] Compound dilutions were performed in DMSO and added to assay wells to a final DMSO concentration of 1%. Each data point was measured in duplicate, and at least two duplicate assays were performed for each individual compound determination. Enzyme was added to final concentrations of 10 nM or 20 nM, for example. A mixture of unlabeled ATP and γ-^33P ATP was added to start the reaction (2×10^6 cpm of γ-^33P ATP per well (3000 Ci/mmole) and either 10 μM or 30 μM unlabeled ATP, typically. The reactions were carried out for 1 hour at room temperature with shaking. Plates were washed 7× with TBS, followed by the addition of 50 μl/well scintillation fluid (Wallac). Plates were read using a Wallac Trilux counter. This is only one format of such assays, various other formats are possible, as known to one of ordinary skill in the art.
Tyrosine kinase activity is determined by 1) measurement of kinase-dependent ATP consumption by in the presence of a generic substrate such as, polyglutamic acid, tyrosine, 4:1 (pEY), by luciferase/luciferin-mediated chemiluminescence or; 2) incorporation of radioactive phosphate derived from ^33P-ATP into a generic substrate which has been adsorbed onto the well surface of polystyrene microtiter plates. Phosphorylated substrate products are quantified by scintillation spectrometry.
(§2) Kinase activity and compound inhibition are investigated using one or more assay formats. The ATP concentrations for each assay are selected to be close to the Michaelis-Menten constant (KM) for each individual kinase. Dose-response experiments are performed at 10 different inhibitor concentrations in a 384-well plate format. […] Exemplary kinase assays are described below. KDR Assay

The next experiment addresses Fyn (Homo sapiens, UniProt P06241). The experiment in a line: Kinase assay, Fyn. The experiment is classed as biochemical. The procedure: as §2
The next experiment concerns the target EphA2 (Homo sapiens, UniProt P29317). In words: Kinase assay, EphA2 (33P-ATP incorporation or luciferase-coupled ATP consumption). The experiment is classed as biochemical. The procedure, abridged: as §1
The next experiment has as its target PDGFR alpha (Homo sapiens, UniProt P16234). In words: Kinase assay, PDGFR alpha (33P-ATP incorporation or luciferase-coupled ATP consumption). Type of experiment: biochemical. The note with it: read-out: PDGF-R-A IC50. An outline of the steps:
as §1

A further experiment concerns the target IRK (Homo sapiens, UniProt P06213). The experiment in a line: Kinase assay, IRK. The experiment is classed as biochemical. The procedure: as §2
Experiment [1] addresses T1, KDR (baculovirus expressed human KDR kinase domain D807-V1356) (Homo sapiens, UniProt P35968).
T1 construct: human KDR kinase domain D807-V1356; host or cells: baculovirus expression system
The experiment in a line: biochemical. An outline of the steps: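 Baculovirus human KDR kinase domain (D807–V1356) with ATP near its KM; 10-point dose-response, 4 h at ambient temperature. Activity taken as percent ATP remaining, detected by luciferase–luciferin chemiluminescence.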

Bounds are passed on as bounds.

Chain of PDGFR alpha (P16234 24-1089): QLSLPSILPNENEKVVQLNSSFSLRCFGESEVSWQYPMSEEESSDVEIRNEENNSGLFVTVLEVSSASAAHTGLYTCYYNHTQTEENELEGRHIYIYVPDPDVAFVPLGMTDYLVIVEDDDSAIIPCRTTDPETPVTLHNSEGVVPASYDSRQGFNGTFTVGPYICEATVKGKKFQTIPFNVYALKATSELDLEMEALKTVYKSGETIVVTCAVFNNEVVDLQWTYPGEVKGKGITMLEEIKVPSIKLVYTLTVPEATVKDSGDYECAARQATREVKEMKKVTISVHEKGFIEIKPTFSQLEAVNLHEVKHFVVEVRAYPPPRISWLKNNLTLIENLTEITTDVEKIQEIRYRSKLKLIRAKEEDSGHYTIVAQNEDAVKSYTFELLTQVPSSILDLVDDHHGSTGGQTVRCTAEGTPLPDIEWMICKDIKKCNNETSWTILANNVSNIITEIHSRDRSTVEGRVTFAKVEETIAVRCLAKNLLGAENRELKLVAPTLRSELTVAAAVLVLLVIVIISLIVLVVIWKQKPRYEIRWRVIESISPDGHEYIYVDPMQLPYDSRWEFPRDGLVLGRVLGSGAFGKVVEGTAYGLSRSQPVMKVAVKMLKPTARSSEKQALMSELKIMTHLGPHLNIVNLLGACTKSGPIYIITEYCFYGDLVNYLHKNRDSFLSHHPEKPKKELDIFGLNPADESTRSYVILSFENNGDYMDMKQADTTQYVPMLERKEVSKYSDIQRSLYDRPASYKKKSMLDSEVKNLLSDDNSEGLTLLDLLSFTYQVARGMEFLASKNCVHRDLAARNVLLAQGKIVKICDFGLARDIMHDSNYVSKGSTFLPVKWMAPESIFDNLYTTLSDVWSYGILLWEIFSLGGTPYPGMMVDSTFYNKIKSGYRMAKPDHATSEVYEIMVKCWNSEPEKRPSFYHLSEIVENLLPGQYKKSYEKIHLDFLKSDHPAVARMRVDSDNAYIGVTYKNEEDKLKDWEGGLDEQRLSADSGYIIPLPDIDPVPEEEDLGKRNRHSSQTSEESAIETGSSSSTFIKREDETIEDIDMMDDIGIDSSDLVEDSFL
T1 sequence (P35968 807-1356): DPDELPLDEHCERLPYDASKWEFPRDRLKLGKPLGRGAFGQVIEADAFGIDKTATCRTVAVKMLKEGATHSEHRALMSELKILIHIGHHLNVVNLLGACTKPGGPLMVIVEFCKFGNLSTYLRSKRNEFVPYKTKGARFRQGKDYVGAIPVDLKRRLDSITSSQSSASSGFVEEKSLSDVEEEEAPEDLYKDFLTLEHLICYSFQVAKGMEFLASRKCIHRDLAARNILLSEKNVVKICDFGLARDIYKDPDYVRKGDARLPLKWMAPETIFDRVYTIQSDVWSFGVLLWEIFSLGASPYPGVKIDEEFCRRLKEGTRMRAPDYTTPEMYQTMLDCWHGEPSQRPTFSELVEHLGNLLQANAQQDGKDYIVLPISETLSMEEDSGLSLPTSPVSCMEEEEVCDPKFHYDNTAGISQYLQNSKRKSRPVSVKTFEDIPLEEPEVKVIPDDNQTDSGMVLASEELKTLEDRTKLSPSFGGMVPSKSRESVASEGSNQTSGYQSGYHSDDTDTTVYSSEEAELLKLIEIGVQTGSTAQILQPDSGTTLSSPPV
Chain of IRK (P06213 28-1382): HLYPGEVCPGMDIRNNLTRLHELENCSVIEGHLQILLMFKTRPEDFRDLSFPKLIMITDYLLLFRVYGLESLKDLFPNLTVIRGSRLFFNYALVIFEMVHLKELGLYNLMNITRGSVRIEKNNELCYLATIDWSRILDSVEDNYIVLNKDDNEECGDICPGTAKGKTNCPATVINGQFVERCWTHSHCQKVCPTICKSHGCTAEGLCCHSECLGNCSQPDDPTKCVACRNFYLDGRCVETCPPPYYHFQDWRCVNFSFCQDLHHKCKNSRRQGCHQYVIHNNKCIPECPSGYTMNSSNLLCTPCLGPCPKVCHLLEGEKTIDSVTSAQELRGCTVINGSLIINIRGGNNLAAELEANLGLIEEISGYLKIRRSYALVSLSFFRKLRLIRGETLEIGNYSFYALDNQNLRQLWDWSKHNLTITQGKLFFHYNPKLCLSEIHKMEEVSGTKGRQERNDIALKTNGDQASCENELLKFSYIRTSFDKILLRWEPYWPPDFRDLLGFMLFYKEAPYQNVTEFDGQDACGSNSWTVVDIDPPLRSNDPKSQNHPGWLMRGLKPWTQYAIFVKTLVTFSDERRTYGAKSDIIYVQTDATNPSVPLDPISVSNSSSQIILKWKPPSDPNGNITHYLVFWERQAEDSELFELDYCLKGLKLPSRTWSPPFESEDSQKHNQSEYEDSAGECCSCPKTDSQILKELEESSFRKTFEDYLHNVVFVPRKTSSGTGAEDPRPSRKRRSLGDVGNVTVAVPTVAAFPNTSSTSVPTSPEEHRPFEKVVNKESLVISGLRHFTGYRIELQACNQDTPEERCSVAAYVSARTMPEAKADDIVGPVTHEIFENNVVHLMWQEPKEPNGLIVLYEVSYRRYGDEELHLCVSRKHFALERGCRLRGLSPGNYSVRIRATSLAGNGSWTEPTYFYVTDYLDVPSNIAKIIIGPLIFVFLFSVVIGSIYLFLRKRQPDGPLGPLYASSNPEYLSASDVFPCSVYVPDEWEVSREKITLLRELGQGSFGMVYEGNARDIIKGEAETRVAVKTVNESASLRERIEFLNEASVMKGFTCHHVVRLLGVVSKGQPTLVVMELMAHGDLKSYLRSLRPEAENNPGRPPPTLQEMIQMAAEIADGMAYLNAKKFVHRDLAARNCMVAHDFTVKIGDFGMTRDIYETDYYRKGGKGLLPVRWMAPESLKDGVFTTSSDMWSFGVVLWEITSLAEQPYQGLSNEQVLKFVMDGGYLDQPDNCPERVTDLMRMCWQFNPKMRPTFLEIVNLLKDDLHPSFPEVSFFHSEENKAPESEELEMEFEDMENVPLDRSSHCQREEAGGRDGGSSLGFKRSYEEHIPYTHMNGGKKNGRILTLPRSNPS
Chain of EphA2 (P29317 24-976, species assumed): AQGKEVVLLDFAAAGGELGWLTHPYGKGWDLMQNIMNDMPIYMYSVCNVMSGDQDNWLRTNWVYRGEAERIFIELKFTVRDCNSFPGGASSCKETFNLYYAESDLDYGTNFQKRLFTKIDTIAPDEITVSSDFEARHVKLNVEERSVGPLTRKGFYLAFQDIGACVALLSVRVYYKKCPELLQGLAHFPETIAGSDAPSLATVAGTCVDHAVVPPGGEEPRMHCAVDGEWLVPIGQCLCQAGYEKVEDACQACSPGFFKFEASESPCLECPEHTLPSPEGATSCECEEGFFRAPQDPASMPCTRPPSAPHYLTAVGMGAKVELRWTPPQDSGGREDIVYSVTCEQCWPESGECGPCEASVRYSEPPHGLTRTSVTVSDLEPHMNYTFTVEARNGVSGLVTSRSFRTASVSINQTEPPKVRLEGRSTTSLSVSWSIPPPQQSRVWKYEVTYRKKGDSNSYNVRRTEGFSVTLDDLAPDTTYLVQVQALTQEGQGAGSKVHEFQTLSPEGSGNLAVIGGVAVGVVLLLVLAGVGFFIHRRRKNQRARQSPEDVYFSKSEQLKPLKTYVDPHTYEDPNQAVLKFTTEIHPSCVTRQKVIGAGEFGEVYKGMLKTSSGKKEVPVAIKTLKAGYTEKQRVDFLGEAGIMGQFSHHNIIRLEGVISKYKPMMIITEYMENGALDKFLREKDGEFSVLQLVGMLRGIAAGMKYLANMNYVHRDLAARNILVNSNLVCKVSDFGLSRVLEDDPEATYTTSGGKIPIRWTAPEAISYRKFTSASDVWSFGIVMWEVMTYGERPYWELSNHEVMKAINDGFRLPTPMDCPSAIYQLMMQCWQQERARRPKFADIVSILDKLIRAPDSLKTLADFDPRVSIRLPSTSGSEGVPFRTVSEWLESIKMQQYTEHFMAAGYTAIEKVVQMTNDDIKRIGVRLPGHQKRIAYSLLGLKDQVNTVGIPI

For the compound `CCN1CCC(Nc2ccc3c(c2)/C(=C(\c2ccc(Cl)cc2)c2nc4ccccc4[nH]2)C(=O)N3)CC1` [Entry 45, (3Z)-3-[1H-benzimidazol-2-yl(4-chlorophenyl)methylidene]-5-[(1-ethylpiperidin-4-yl)amino]-1,3-dihydro-2H-indol-2-one], the IC50 (usually the point on the concentration scale where inhibition reaches its midpoint) against FGFR1 is 0.05 to 0.5 µM; on EGFR, 0.05 to 0.5 µM; at Flt-1 it was below 0.05 µM; against Fyn, below 0.05 µM; at EphA2, 0.5 to 5 µM; on PDGFR alpha it was below 0.05 µM. For the same compound, the values for the 50% inhibitory concentration (IC50) (at IRK; in experiment [1]) were 0.5 to 5 µM and below 0.05 µM, respectively.

Regarding `CCN1CCC(Oc2ccc3c(c2)/C(=C(\c2cc(F)cc(F)c2)c2nc4ccccc4[nH]2)C(=O)N3)CC1` [Entry 33, (3Z)-3-[1H-benzimidazol-2-yl(3,5-difluorophenyl)methylidene]-5-[(1-ethylpiperidin-4-yl)oxy]-1,3-dihydro-2H-indol-2-one], the IC50 on FGFR1 is 0.05 to 0.5 µM; against EGFR it was 0.5 to 5 µM; on Flt-1, 0.05 to 0.5 µM; at Fyn it was below 0.05 µM; against EphA2, 0.5 to 5 µM; on PDGFR alpha, below 0.05 µM. In addition, the IC50 on IRK was 0.5 to 5 µM; in experiment [1] it was below 0.05 µM.

Turning to `COCCN1CCC(Oc2ccc3c(c2)/C(=C(\c2cccc(Cl)c2)c2nc4ccccc4[nH]2)C(=O)N3)CC1` [Entry 37, (3Z)-3-[1H-benzimidazol-2-yl(3-chlorophenyl)methylidene]-5-({1-[2-(methyloxy)ethyl]piperidin-4-yl)oxy)-1,3-dihydro-2H-indol-2-one], the IC50 is 0.05 to 0.5 µM against FGFR1; 0.05 to 0.5 µM at EGFR; 0.5 to 5 µM at Flt-1; below 0.05 µM against Fyn; 0.5 to 5 µM on EphA2; below 0.05 µM at PDGFR alpha. Besides, the IC50 at IRK was 0.5 to 5 µM; in experiment [1], below 0.05 µM.

On to `CCN1CCC(Nc2ccc3c(c2)/C(=C(\c2ccc(OC)cc2)c2ncc[nH]2)C(=O)N3)CC1` [Entry 15, (3Z)-5-[(1-ethylpiperidin-4-yl)amino]-3-{1H-imidazol-2-yl[4-(methyloxy)phenyl]methylidene}-1,3-dihydro-2H-indol-2-one], for which the 50% inhibitory concentration (IC50) is 0.5 to 5 µM on EGFR; 0.05 to 0.5 µM at Flt-1; below 0.05 µM on Fyn; 0.5 to 5 µM at EphA2; below 0.05 µM at PDGFR alpha; 0.5 to 5 µM on IRK. Moreover, the concentration for half-maximal inhibition (IC50) in experiment [1] is below 0.05 µM.

For the compound `CC1(C)CC(Nc2ccc3c(c2)/C(=C(\c2ccccc2)c2nc4ccccc4[nH]2)C(=O)N3)CC(C)(C)N1` [Entry 25, (3Z)-3-[1H-benzimidazol-2-yl(phenyl)methylidene]-5-[(2,2,6,6-tetramethylpiperidin-4-yl)amino]-1,3-dihydro-2H-indol-2-one], the IC50 at EGFR lay in the range of 0.5 to 5 µM; at Flt-1 it was 0.5 to 5 µM; on Fyn it was 0.5 to 5 µM; against EphA2, 0.5 to 5 µM; on PDGFR alpha it was 0.05 to 0.5 µM; on IRK it was 0.5 to 5 µM. This compound also registered an IC50 in experiment [1] of 0.05 to 0.5 µM.

As to `CN(C)CCN1CCC(Nc2ccc3c(c2)/C(=C(\c2ccccc2)c2nc4ccccc4[nH]2)C(=O)N3)CC1` [Entry 29, (3Z)-3-[1H-benzimidazol-2-yl(phenyl)methylidene]-5-({1-[2-(dimethylamino)ethyl]piperidin-4-yl}amino)-1,3-dihydro-2H-indol-2-one], the IC50 lay within 0.5 to 5 µM against EGFR; 0.5 to 5 µM on Flt-1; 0.05 to 0.5 µM against Fyn; 0.5 to 5 µM against EphA2; 0.05 to 0.5 µM at PDGFR alpha; 0.5 to 5 µM at IRK. Besides, the IC50 in experiment [1] is below 0.05 µM.

On to `CCN1CCC(Nc2ccc3c(c2)/C(=C(\c2ccc(F)cc2)c2nc4ccccc4[nH]2)C(=O)N3)CC1` [Entry 16, (3Z)-3-[1H-benzimidazol-2-yl(4-fluorophenyl)methylidene]-5[(1-ethylpiperidin-4-yl)amino]-1,3-dihydro-2H-indol-2-one], for which the IC50 at EGFR was 0.5 to 5 µM; at Flt-1 it was 0.05 to 0.5 µM; on Fyn, 0.05 to 0.5 µM; on EphA2, 0.5 to 5 µM; at PDGFR alpha, below 0.05 µM; against IRK, 0.5 to 5 µM. Further, the IC50 in experiment [1] was below 0.05 µM.

Take `CCN1CCC(Nc2ccc3c(c2)/C(=C(\c2ccc(C)cc2)c2nc4cc(OC)ccc4[nH]2)C(=O)N3)CC1` [Entry 6, (3Z)-5-[(1-ethylpiperidin-4-yl)amino]-3-[[5-(methyloxy)-1 H-benzimidazol-2-yl](4-methylphenyl)methylidene]-1,3-dihydro-2H-indol-2-one]: the IC50 against EGFR is 0.5 to 5 µM; on Flt-1 it was 0.05 to 0.5 µM; against Fyn it was below 0.05 µM; at EphA2 it was 0.5 to 5 µM; at PDGFR alpha it was below 0.05 µM; at IRK it was 0.5 to 5 µM. Moreover, in experiment [1], the IC50 was below 0.05 µM.

Turning to `CCN1CCC(Nc2ccc3c(c2)/C(=C(\c2cccc([N+](=O)[O-])c2)c2nc4ccccc4[nH]2)C(=O)N3)CC1` [Entry 19, (3Z)-3-[1H-benzimidazol-2-yl(3-nitrophenyl)methylidene]-5-[(1-ethylpiperidin-4-yl)amino]-1,3-dihydro-2H-indol-2-one], the concentration for half-maximal inhibition (IC50) is 0.5 to 5 µM against EGFR; 0.05 to 0.5 µM at Flt-1; 0.05 to 0.5 µM at Fyn; 0.5 to 5 µM against EphA2; below 0.05 µM at PDGFR alpha; 0.5 to 5 µM at IRK. The compound further showed an IC50 in experiment [1] below 0.05 µM.

As to `O=C1Nc2ccc(NC3CCNCC3)cc2/C1=C(\c1ccccc1)c1nc2ccccc2[nH]1` [Entry 22, (3Z)-3-[1H-benzimidazol-2-yl(phenyl)methylidene] -5-(piperidin-4-ylamino)-1,3-dihydro-2H-indol-2-one], the concentration for half-maximal inhibition (IC50) was 0.5 to 5 µM against EGFR; 0.05 to 0.5 µM on Flt-1; below 0.05 µM at Fyn; 0.05 to 0.5 µM against EphA2; below 0.05 µM at PDGFR alpha; 0.05 to 0.5 µM on IRK. Besides, the IC50 in experiment [1] is below 0.05 µM.

For `COc1ccc2[nH]c(/C(=C3\C(=O)Nc4ccc(NC5CCN(Cc6ccccc6)C5)cc43)c3ccccc3)nc2c1` (stereo not shown) [Entry 1, (3Z)-3-[[5-(methyloxy)-1H-benzimidazol-2-yl](phenyl)methylidene[-5-}[1-(phenylmethyl)pyrrolidin-3-yl]amino}-1,3-dihydro-2H-indol-2-one], the IC50 on EGFR is 0.5 to 5 µM; at Flt-1, 0.05 to 0.5 µM; against Fyn it was 0.05 to 0.5 µM; at EphA2, 0.5 to 5 µM; at PDGFR alpha, 0.05 to 0.5 µM; against IRK, above 5 µM. The compound also showed an IC50 in experiment [1] below 0.05 µM.

As for `CCN1CCC(Nc2ccc3c(c2)/C(=C(\c2cccc(N)c2)c2nc4ccccc4[nH]2)C(=O)N3)CC1` [Entry 21, (3Z)-3-[(3-aminophenyl) (1H-benzimidazol-2-yl)methylidene]-5-[(1-ethylpiperidin-4-yl)amino]-1,3-dihydro-2H-indol-2-one], the IC50 against EGFR was 0.5 to 5 µM; at Flt-1, 0.05 to 0.5 µM; on Fyn, 0.05 to 0.5 µM; at EphA2, 0.5 to 5 µM; at PDGFR alpha, below 0.05 µM; against IRK, 0.5 to 5 µM. Moreover, the IC50 in experiment [1] is below 0.05 µM.

`O=C1Nc2ccc(NC3CC4CCC(C3)N4)cc2/C1=C(\c1ccccc1)c1nc2ccccc2[nH]1` (stereo not shown) [Entry 31, (3Z)-5-(8-azabicyclo[3.2.1]oct-3-ylamino)-3-[1H-benzimidazol-2-yl(phenyl)methylidene]-1,3-dihydro-2H-indol-2-one]: the IC50 against EGFR fell in the range of 0.5 to 5 µM; on Flt-1 it was 0.5 to 5 µM; on Fyn, 0.05 to 0.5 µM; on EphA2, 0.5 to 5 µM; on PDGFR alpha it was 0.05 to 0.5 µM; against IRK it was 0.5 to 5 µM. In experiment [1], the IC50 lay in the range of 0.05 to 0.5 µM.
